# Measured values: article PMC6941846 (Bioorganic & medicinal chemistry, 2019)
# Where two headings read alike, the source gives them in different places.
# Assays:
# DYRK1A [1] = target: T1, DYRK1A (Homo sapiens, UniProt Q13627); assay: DYRK1A NFAT luciferase response assay; assay type: cell-based; details: for DYRK1A-Luc EC50: HEK293T reporter cells, NFAT-dependent firefly luciferase, 48 h
# HEK293T cells [2] = assay: Constitutive Renilla luciferase; assay type: cell-based; details: for fold reduction of cytotoxicity (R-Luc CC50): compared to OTS167 / parent; for R-Luc CC50: HEK293T cells, constitutive Renilla luciferase drops by 50%, 48 h; for Index (CC50/EC50), Cytotoxicity / Activity Index: R-Luc CC50 / DYRK1A-Luc EC50, HEK293T
# HEK293T cells [3] = details: for reduction in cell number / cells killed: inhibitor 40 nM combined with compound 56 (90 nM or 270 nM)
# in vitro = details: human
# human β-cells [4] = details: cited from earlier work
# MELK [5] = target: T2, MELK (Homo sapiens, UniProt Q14680); assay: MELK kinase binding assay
# [6] = Microsome stability assay, mouse liver microsomes; assay type: in vitro ADME; details: 1 μM compound, NADPH
# [7] = Microsome stability assay, human liver microsomes; assay type: in vitro ADME; details: 1 μM compound, NADPH
# [8] = Caco-2 permeability assay; assay type: in vitro ADME; details: 10 μM, pH 7.4, direction not stated
# 468 kinases = assay: Kinome SCAN profile; assay type: binding; details: 100 nM
# DYRK1A [9] = target: T1, DYRK1A; assay: Kinome SCAN profile, DYRK1A; assay type: binding; details: read-out: DYRK1A residual activity
# human β-cells [10] = assay: Human islet β-cell replication
# MELK [11] = target: T2, MELK; details: FACS-sorted β-cells, vs vehicle; cited from earlier work
# T2 sequence (Q14680 whole entry): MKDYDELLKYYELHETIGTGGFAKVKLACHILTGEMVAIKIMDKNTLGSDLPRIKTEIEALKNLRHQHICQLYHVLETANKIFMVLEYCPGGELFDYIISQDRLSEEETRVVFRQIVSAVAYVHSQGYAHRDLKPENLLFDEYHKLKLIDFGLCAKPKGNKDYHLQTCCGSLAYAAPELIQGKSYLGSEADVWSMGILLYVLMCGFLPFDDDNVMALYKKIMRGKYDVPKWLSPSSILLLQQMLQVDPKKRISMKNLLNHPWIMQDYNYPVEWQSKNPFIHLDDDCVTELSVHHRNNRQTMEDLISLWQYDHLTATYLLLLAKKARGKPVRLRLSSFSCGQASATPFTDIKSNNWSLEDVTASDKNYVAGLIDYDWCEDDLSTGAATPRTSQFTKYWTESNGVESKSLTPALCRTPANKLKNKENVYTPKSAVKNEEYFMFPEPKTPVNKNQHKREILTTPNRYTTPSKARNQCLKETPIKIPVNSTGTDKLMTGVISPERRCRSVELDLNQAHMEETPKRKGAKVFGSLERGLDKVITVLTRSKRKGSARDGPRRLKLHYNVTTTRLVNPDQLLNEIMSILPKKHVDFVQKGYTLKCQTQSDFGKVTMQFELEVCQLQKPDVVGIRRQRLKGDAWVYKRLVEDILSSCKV
structure (smiles),measurement,setting,value
"CCOC(=O)c1cnc2ccc(-c3cc(Cl)c(O)c(Cl)c3)nc2c1Nc1ccc(CN(C)C)cc1 [Compound 27, Ethyl 6-(3,5-dichloro-4-hydroxyphenyl)-4-((4-((dimethylamino)methyl)phenyl)amino)-1,5-naphthyridine-3-carboxylate]",DYRK1A-Luc EC50,DYRK1A [1],maintained DYRK1A inhibition potency
same,fold reduction of cytotoxicity (R-Luc CC50),HEK293T cells [2]; HEK293T,~ 60 fold
O=C(O)c1ccc(Nc2ncc3c(n2)-c2ccc(Cl)cc2C(c2c(F)cccc2F)=NC3)cc1 [MLN-8054],reduction in cell number / cells killed,HEK293T cells [3]; 48 h,50%
same,CC50 at 48 h,in vitro,55.1 nM
"CCOC(=O)c1cnc2ccc(-c3cc(Cl)c(O)c(Cl)c3)nc2c1N1CCNCC1 [Compound 38, Ethyl 6-(3,5-dichloro-4-hydroxyphenyl)-4-(piperazin-1-yl)-1,5-naphthyridine-3-carboxylate]",DYRK1A-Luc EC50,DYRK1A [1],reduced DYRK1A inhibition potency
same,fold less toxic than butyl amide counterpart (R-Luc CC50),HEK293T cells [2]; HEK293T,7 fold
same,R-Luc CC50,HEK293T cells [2],reduced cytotoxicity
same,"Index (CC50/EC50), Cytotoxicity / Activity Index",HEK293T cells [2],137
"CCOC(=O)c1cnc2ccc(-c3cc(Cl)c(O)c(Cl)c3)nc2c1N1CCCCC1 [Compound 35, Ethyl 6-(3,5-dichloro-4-hydroxyphenyl)-4-(piperidin-1-yl)-1,5-naphthyridine-3-carboxylate]",DYRK1A-Luc EC50,DYRK1A [1],reduced DYRK1A inhibition potency
same,R-Luc CC50,HEK293T cells [2],reduced cytotoxicity
CC(C)Oc1ccc(F)c(-c2cnc(N)c(C(=O)Nc3cnccc3N3CCC[C@@H](C(=O)O)C3)n2)c1 [GNF-4877],human β-cell replication induction-potency [ECmin],human β-cells [4],~ 100 nM
"CCOC(=O)c1cnc2ccc(-c3ccncc3)nc2c1N[C@H]1CC[C@H](CN(C)C)CC1 [Compound 56, Ethyl 4-(((trans)-4-((dimethylamino)methyl)cyclohexyl)amino)-6-(pyridin-4-yl)-1,5-naphthyridine-3-carboxylate]",Kd,MELK [5],15 nM
same,MLM t1/2,[6],readily metabolized
same,HLM t1/2,[7],readily metabolized
same,Caco-2,[8],4.03 1 x 10^−6 cm/s
same,cytotoxicity (cell number),"HEK293T cells [3]; 56 alone at 30 nM, 90 nM or 270 nM, 48 h",no cytotoxicity
"CCOC(=O)c1cnc2ccc(-c3ccnc(N)c3)nc2c1N[C@H]1CC[C@H](CN2CCOCC2)CC1 [Compound 63, Ethyl 6-(2-aminopyridin-4-yl)-4-(((trans)-4-(morpholinomethyl)cyclohexyl)amino)-1,5-naphthyridine-3-carboxylate]",MLM t1/2,[6],readily metabolized
same,HLM t1/2,[7],readily metabolized
same,Caco-2,[8],2.7 1 x 10^−6 cm/s
CC(=O)c1cnc2ccc(-c3cc(Cl)c(O)c(Cl)c3)nc2c1N[C@H]1CC[C@H](CN(C)C)CC1 [Compound 5],kinases inhibited to less than 35% of baseline activity,468 kinases,189/403
same,kinases with <1% residual activity,468 kinases,69/403
same,remaining binding at 0.1 µM,DYRK1A [9],< 1%
same,dose range in which β-cell replication occurred,human β-cells [10],5 to 40 nM
CCN(CCO)CCCOc1ccc2c(Nc3cc(CC(=O)Nc4cccc(F)c4)[nH]n3)ncnc2c1 [AZD-1152-HQPA],reduction in cell number / cells killed,HEK293T cells [3]; 48 h,67%
same,CC50 at 48 h,in vitro,38.9 nM
"CCOC(=O)c1cnc2ccc(-c3cc(Cl)c(O)c(Cl)c3)nc2c1N[C@H]1CC[C@H](C(=O)N(C)C)CC1 [Compound 42, Ethyl 6-(3,5-dichloro-4-hydroxyphenyl)-4-(((trans)-4-(dimethylcarbamoyl)cyclohexyl)amino)-1,5-naphthyridine-3-carboxylate]",Caco-2,[8],0.12 1 x 10^−6 cm/s
"COc1ccc2c(c1)[nH]c1c(C)nccc12 [Harmine, harmine]",human β-cell replication induction-potency [ECmin],human β-cells [4],"~ 3,000 nM"
"CCOC(=O)c1cnc2ccc(-c3cc(Cl)c(O)c(Cl)c3)nc2c1NC1CCN(C)CC1 [Compound 34, Ethyl 6-(3,5-dichloro-4-hydroxyphenyl)-4-((1-methylpiperidin-4-yl)amino)-1,5-naphthyridine-3-carboxylate]",fold increase in the Cytotoxicity / Activity Index,HEK293T cells [2]; compared to OTS167,~ 13 fold
same,fold reduction of cytotoxicity (R-Luc CC50),HEK293T cells [2]; HEK293T,~ 16 fold
same,Caco-2,[8],4.6 1 x 10^−6 cm/s
"CCOC(=O)c1cnc2ccc(-c3cc(Cl)c(O)c(Cl)c3)nc2c1N[C@H]1CC[C@H](CC(N)=O)CC1 [Compound 49, Ethyl 4-(((trans)-4-(2-amino-2-oxoethyl)cyclohexyl)amino)-6-(3,5-dichloro-4-hydroxyphenyl)-1,5-naphthyridine-3-carboxylate]",Caco-2,[8],0.01 1 x 10^−6 cm/s
"CCOC(=O)c1cnc2ccc(-c3cc(Cl)c(O)c(Cl)c3)nc2c1N[C@H]1CC[C@H](CN(C)C)CC1 [Compound 15, Ethyl-6-(3,5-dichloro-4-hydroxyphenyl)-4-(((trans)-4 ((dimethylamino)methyl)cyclohexyl)amino)-1,5-naphthyridine-3-carboxylate]",fold reduction of cytotoxicity (R-Luc CC50),HEK293T cells [2]; HEK293T,~ 3 fold
"CN(C)C[C@H]1CC[C@H](Nc2c(C#N)cnc3ccc(-c4cc(Cl)c(O)c(Cl)c4)nc23)CC1 [Compound 16, 6-(3,5-Dichloro-4-hydroxyphenyl)-4-(((trans)-4-((dimethylamino)methyl)cyclohexyl)amino)-1,5-naphthyridine-3-carbonitrile]",fold reduction in DYRK1A inhibition potency,DYRK1A [1]; compared to OTS167,~ 9 fold
same,R-Luc CC50,HEK293T cells [2],virtually non-toxic
"CCOC(=O)c1cnc2ccc(-c3cc(Cl)c(O)c(Cl)c3)nc2c1N[C@H]1CC[C@H](C)CC1 [Compound 32, Ethyl 6-(3,5-dichloro-4-hydroxyphenyl)-4-(((trans)-4-methylcyclohexyl)amino)-1,5-naphthyridine-3-carboxylate]",DYRK1A-Luc EC50,DYRK1A [1],eliminated cellular activity
"CCOC(=O)c1cnc2ccc(-c3cc(C)c(O)c(C)c3)nc2c1N[C@H]1CC[C@H](CN(C)C)CC1 [Compound 52, Ethyl 4-(((trans)-4-((dimethylamino)methyl)cyclohexyl)amino)-6-(4-hydroxy-3,5-dimethylphenyl)-1,5-naphthyridine-3-carboxylate]","Index (CC50/EC50), Cytotoxicity / Activity Index",HEK293T cells [2],> 842
O=C(NC[C@H](O)CO)c1ccncc1Nc1ccc(I)cc1F [AS-703026],cells killed,"HEK293T cells [3]; inhibitor 10 uM combined with 56 (90 nM), 48 h",6%
Cn1c(=O)c(F)c(Nc2ccc(I)cc2F)c2c(=O)n(C[C@@H](O)CO)cnc21 [TAK-733],cytotoxicity in combination,"HEK293T cells [3]; TAK-733 10 uM combined with 56 (30 nM, 90 nM, or 270 nM)",did not exhibit cytotoxicity
same,cells killed,"HEK293T cells [3]; inhibitor alone at 10 uM, 48 h",did not exhibit cytotoxicity
c1cc(OCCN2CCCCC2)cc(-c2n[nH]c3ccc(-c4nc[nH]n4)cc23)c1 [CC-401],induction of MELK expression,MELK [11],2.6 fold
"CCOC(=O)c1cnc2ccc(-c3cc(Cl)c(O)c(Cl)c3)nc2c1N1CCC(C)CC1 [Compound 36, Ethyl 6-(3,5-dichloro-4-hydroxyphenyl)-4-(4-methylpiperidin-1-yl)-1,5-naphthyridine-3-carboxylate]",DYRK1A-Luc EC50,DYRK1A [1],reduced DYRK1A inhibition potency
same,R-Luc CC50,HEK293T cells [2],reduced cytotoxicity
"CCOC(=O)c1cnc2ccc(-c3cc(Cl)c(O)c(Cl)c3)nc2c1N1CCOCC1 [Compound 37, Ethyl 6-(3,5-dichloro-4-hydroxyphenyl)-4-morpholino-1,5-naphthyridine-3-carboxylate]",DYRK1A-Luc EC50,DYRK1A [1],reduced DYRK1A inhibition potency
same,R-Luc CC50,HEK293T cells [2],reduced cytotoxicity
"Nc1ncnc2c1c(I)cn2[C@@H]1O[C@H](CO)[C@@H](O)[C@H]1O [Compound 5-IT, 5-iodotubercidin]",human β-cell replication induction-potency [ECmin],human β-cells [4],~ 100 nM
"CCNC(=O)c1cnc2ccc(-c3ccnc(N)c3)nc2c1N[C@H]1CC[C@H](CN(C)C)CC1 [Compound 60, 6-(2-Aminopyridin-4-yl)-4-(((trans)-4-((dimethylamino)methyl)cyclohexyl)amino)-N-ethyl-1,5-naphthyridine-3-carboxamide]",DYRK1A-Luc EC50,DYRK1A [1],maintained good DYRK1A activity
"CCOC(=O)c1cnc2ccc(-c3cc(Cl)cc(Cl)c3)nc2c1N[C@H]1CC[C@H](CN(C)C)CC1 [Compound 50, Ethyl 6-(3,5-dichlorophenyl)-4-(((trans)-4-((dimethylamino)methyl)cyclohexyl)amino)-1,5-naphthyridine-3-carboxylate]",DYRK1A-Luc EC50,DYRK1A [1],abrogated DYRK1A-inhibition
CCCCNC(=O)c1cnc2ccc(-c3cc(Cl)c(O)c(Cl)c3)nc2c1N[C@H]1CC[C@H](C(=O)N2CCOCC2)CC1 [Compound 47],Caco-2,[8],9.1 1 x 10^−6 cm/s
O=C(O)[C@]1(Cc2cccc(Nc3nccs3)n2)CC[C@@H](Oc2cccc(Cl)c2F)CC1 [MK-5108],cells killed,"HEK293T cells [3]; MK 3 μM with 56 at 30 nM, 48 h",31%
same,cells killed,"HEK293T cells [3]; MK 3 μM with 56 at 90 nM, 48 h",36%
same,cells killed,"HEK293T cells [3]; MK 3 μM with 56 at 270 nM, 48 h",34%
same,CC50 at 48 h,in vitro; HEK293T cells,> 10000 nM
